Laboratory results as given in paper PMC10108397 (ACS Medicinal Chemistry Letters, 2023).

Assays:
MDA-MB-231 cells [1] = experiment: MDA-MB-231 cell viability assay; assay type: cell-based; conditions: 48 h, up to 10 μM
Kinetic solubility = conditions: for solubility kinetic at 24 h: pH 7.4, kinetic solubility, PBS pH 7.4, 24-hour incubation; for measured solubility relative to the dose concentration: actual solubility estimated to be higher than Table 1
DYRKs and HIPKs = experiment: Enzymatic profiling, 8-member DYRK and HIPK panel; assay type: biochemical; conditions: 1 μM
phospho-AKT (Ser129) = experiment: Western blot analyses of pAKT and AKT in MDA-MB-231 cells; assay type: cell-based; conditions: 24 h exposure
PAMPA = assay type: in vitro ADME; conditions: correlation
MDA-MB-231 cells [2] = conditions: 2–10 μM, 24–72 h, WST-1; cited from earlier work
[3] = test system: 13 multiple myeloma cell lines; conditions: cited from earlier work
CK2α and CK2α′ = experiment: CK2 NanoBRET assays
PIP5K1C = PIP5K1C (Homo sapiens, UniProt O60331); experiment: Enzymatic assay, dose-response; assay type: biochemical
PIP5K1C, sequence (O60331 whole entry): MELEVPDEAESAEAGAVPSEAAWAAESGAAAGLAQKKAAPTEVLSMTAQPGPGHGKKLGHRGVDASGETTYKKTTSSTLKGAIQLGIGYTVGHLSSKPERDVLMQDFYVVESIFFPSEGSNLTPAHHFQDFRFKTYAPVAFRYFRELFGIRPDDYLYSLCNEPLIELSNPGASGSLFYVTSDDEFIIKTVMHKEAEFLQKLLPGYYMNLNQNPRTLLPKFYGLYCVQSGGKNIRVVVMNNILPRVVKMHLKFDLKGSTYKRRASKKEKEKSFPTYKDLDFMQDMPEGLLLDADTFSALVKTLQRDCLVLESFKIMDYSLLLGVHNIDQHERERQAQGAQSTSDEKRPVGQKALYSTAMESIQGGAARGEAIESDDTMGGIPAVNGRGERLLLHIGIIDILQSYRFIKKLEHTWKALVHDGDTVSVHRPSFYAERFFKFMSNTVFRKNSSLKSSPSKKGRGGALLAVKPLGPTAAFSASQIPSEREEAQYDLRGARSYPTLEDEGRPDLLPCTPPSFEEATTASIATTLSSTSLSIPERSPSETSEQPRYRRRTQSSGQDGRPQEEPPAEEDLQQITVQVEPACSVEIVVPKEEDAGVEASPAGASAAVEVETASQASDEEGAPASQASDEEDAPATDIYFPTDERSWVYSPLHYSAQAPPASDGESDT

SMILES | solubility kinetic at 24 h (Kinetic solubility) [µM] | measured solubility relative to the dose concentration (Kinetic solubility) | activity in DYRK and HIPK enzymatic panel (DYRKs and HIPKs) | also measured
N#Cc1cccc(Nc2nc3cc(C(=O)O)ccc3c3cncnc23)c1 [CX-5011, reference compound] | – | – | – | cytotoxicity (MDA-MB-231 cells [1]): did not exhibit cytotoxicity
O=C(O)c1ccc2c(c1)nc(NCCc1cccc(Cl)c1)c1ncncc12 [Compound 9] | > 100 | – | lacked activity against DYRKs and HIPKs | –
O=C(O)c1ccc2c(c1)nc(NCCc1cccc(Cl)c1)c1ccncc12 [Compound 18] | > 100 | greater than 75% | potent inhibition of just one kinase | –
O=C(O)c1ccc2c(c1)nc(NCc1ccccc1)c1ncncc12 [Compound 2] | > 100 | greater than 75% | lacked activity against DYRKs and HIPKs | cytotoxicity (MDA-MB-231 cells [1]): neither compound 2 nor SGC-CK2-1 exhibited significant cytotoxicity; AKT phosphorylation (phospho-AKT (Ser129)): dose-dependent inhibition of AKT phosphorylation; total AKT expression (phospho-AKT (Ser129)): no impact on total AKT expression; human fraction absorbed (%FA) correlated with PAMPA Pe (PAMPA): greater than 80%
O=C(O)c1ccc2c(c1)nc(NCCc1ccccc1)c1ncncc12 [Compound 17] | > 100 | – | potent inhibition of just one kinase | –
O=C(O)c1ccc2c(c1)nc(Nc1ccc3ccccc3c1)c1ncncc12 [Compound 11] | – | – | – | observation during solubility assessment (Kinetic solubility): insoluble residue
O=C(O)c1ccc2c(c1)nc(Nc1cccc(Cl)c1)c1ccncc12 [CX-4945, 5-(3-chlorophenylamino)benzo[c][2,6]naphthyridine-8-carboxylic acid, reference compound] | – | – | – | cytotoxicity (MDA-MB-231 cells [1]): did not exhibit cytotoxicity; AKT phosphorylation (phospho-AKT (Ser129)): dose-dependent inhibition of AKT phosphorylation; total AKT expression (phospho-AKT (Ser129)): no impact on total AKT expression; cell growth (MDA-MB-231 cells [2]): cell growth is inhibited; antiproliferative activity [3]: low micromolar antiproliferative activity
COc1cccc(CCNc2nc3cc(C(=O)O)ccc3c3cncnc23)c1 [Compound 8] | > 100 | greater than 75% | lacked activity against DYRKs and HIPKs | –
O=C(O)c1ccc2c(c1)nc(Nc1ccccc1Cl)c1ncncc12 [Compound 15] | – | – | – | observation during solubility assessment (Kinetic solubility): insoluble residue
O=C(O)c1ccc2c(c1)nc(Nc1ccc(Cl)cc1)c1ncncc12 [Compound 12] | – | greater than 75% | – | –
O=C(O)c1ccc2c(c1)nc(NCc1ccccc1)c1ncccc12 [Compound 7] | – | – | – | cytotoxicity (MDA-MB-231 cells [1]): did not exhibit cytotoxicity; binding in CK2α and CK2α′ NanoBRET assays (CK2α and CK2α′): not bind either kinase at concentrations up to 10 μM; human fraction absorbed (%FA) correlated with PAMPA Pe (PAMPA): greater than 80%; PIP5K1C inhibition, enzymatic follow-up (PIP5K1C): did not result in PIP5K1C inhibition
O=C(O)c1ccc2c(c1)nc(Nc1ccccc1)c1ncncc12 [Compound 16] | – | greater than 75% | – | –
O=C(O)c1ccc2c(c1)nc(Nc1cccc(F)c1)c1ncncc12 [Compound 13] | – | greater than 75% | – | –
O=C(O)c1ccc2c(c1)nc(NCCc1cccc(F)c1)c1ncncc12 [Compound 10] | > 100 | – | potent inhibition of just one kinase | –

Second part, led by results:

solubility kinetic at 24 h (Kinetic solubility) [µM] | measured solubility relative to the dose concentration (Kinetic solubility) | SMILES | activity in DYRK and HIPK enzymatic panel (DYRKs and HIPKs) | also measured
> 100 | greater than 75% | O=C(O)c1ccc2c(c1)nc(NCCc1ccccc1)c1ccncc12 [Compound 27, 5-(phenethylamino)benzo[c][2,6]naphthyridine-8-carboxylic acid] | – | –
> 100 | greater than 75% | COc1cccc(CCNc2nc3cc(C(=O)O)ccc3c3cnccc23)c1 [Compound 24] | potent inhibition of just one kinase | –
– | greater than 75% | COc1cccc(Nc2nc3cc(C(=O)O)ccc3c3cnccc23)c1 [Compound 28, 5-((3-methoxyphenyl)amino)benzo[c][2,6]naphthyridine-8-carboxylic acid] | – | –
– | greater than 75% | O=C(O)c1ccc2c(c1)nc(Nc1cccc(F)c1)c1ccncc12 [Compound 23] | – | –
– | greater than 75% | O=C(O)c1ccc2c(c1)nc(Nc1ccccc1)c1ccncc12 [Compound 25] | – | –
> 100 | greater than 75% | O=C(O)c1ccc2c(c1)nc(NCCc1cccc(F)c1)c1ccncc12 [Compound 22] | – | –
> 100 | greater than 75% | O=C(O)c1ccc2c(c1)nc(NCc1ccccc1)c1ccncc12 [Compound 21] | lacked activity against DYRKs and HIPKs | –
